Key:
[1] = Toxicity in rat assessed as development-limiting toxicity; settings: in vivo
Rattus norvegicus = experiment: In vivo inhibition of DGAT2 in sucrose diet fed Sprague-Dawley rat assessed as reduction in triglyceride level administered as single oral dose and measured after 2 hrs; type: functional, organism-based; settings: dose 0.3-90 mg/kg, DDE = dose-dependent effect
Cytochrome P450 2C19 = Cytochrome P450 2C19 (Homo sapiens, UniProt P33261); experiment: Reversible inhibition of CYP2C19 in pooled human liver microsomes using 4-Hydroxymephenytoin as substrate incubated for 20 mins in presence of NADPH by HPLC-MS/MS analysis; type: ADME, Microsome
[2] = Drug metabolism in monkey hepatocytes assessed as oxidation of THF ring mediated metabolite formation; type: ADME, cell-based, Macaca mulatta, Hepatocyte; settings: rhesus monkey
[3] = Plasma protein binding in rat assessed as unbound fraction ratio at 2 uM; type: ADME, cell-free
Cytochrome P450 1A2 = biological target: T1, Cytochrome P450 1A2 (Homo sapiens, UniProt P05177); experiment: Reversible inhibition of CYP1A2 in pooled human liver microsomes using […] as substrate incubated for 20 mins in presence of NADPH by HPLC-MS/MS analysis; type: ADME, Microsome
T1 sequence (P05177 whole entry): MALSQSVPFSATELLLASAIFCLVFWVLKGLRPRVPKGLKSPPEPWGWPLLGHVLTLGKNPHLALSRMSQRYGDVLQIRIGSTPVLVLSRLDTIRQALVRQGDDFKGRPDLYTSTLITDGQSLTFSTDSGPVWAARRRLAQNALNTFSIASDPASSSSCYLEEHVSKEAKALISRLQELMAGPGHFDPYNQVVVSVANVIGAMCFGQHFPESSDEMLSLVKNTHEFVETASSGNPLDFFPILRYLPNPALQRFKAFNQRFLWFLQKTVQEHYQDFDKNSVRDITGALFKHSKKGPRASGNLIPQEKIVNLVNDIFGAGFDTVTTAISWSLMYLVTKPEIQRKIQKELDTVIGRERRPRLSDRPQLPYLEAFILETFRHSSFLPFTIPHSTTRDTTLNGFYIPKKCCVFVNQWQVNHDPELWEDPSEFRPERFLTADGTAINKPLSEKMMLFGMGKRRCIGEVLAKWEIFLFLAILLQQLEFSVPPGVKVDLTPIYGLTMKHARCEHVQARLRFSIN

[4] = Plasma protein binding in cynomolgus monkey assessed as unbound fraction ratio at 2 uM; type: ADME, cell-free, Macaca fascicularis
[5] = Plasma clearance in cynomolgus monkey at 1 mg/kg, iv; type: ADME, organism-based, Macaca fascicularis
[6] = Apparent permeability in MDCK-II cells; type: ADME, cell-based, Canis lupus familiaris; settings: dog, MDCK; read-out: Papp
[7] = Drug metabolism in rat hepatocytes assessed as O-deethylation mediated pyridin-3-ol mediated metabolite formation; type: ADME, cell-based, Hepatocyte
[8] = Volume of distribution at steady state in Wistar Han rat at 1 mg/kg, iv; type: ADME, organism-based; settings: in vivo, read-out: Vdss
[9] = Drug metabolism in cryopreserved human hepatocytes assessed as hydrolytic cleavage of amide bond mediated metabolite formation at 10 uM measured for 240 mins by HPLC-UV-MS analysis; type: ADME, cell-based, Hepatocyte; settings: 4 h
[10] = Cardiotoxicity in non-human primates assessed as development-limiting toxicity
Cytochrome P450 2B6 = biological target: T2, Cytochrome P450 2B6 (Homo sapiens, UniProt P20813); experiment: Reversible inhibition of CYP2B6 in pooled human liver microsomes; type: ADME, Microsome
T2 sequence (P20813 whole entry): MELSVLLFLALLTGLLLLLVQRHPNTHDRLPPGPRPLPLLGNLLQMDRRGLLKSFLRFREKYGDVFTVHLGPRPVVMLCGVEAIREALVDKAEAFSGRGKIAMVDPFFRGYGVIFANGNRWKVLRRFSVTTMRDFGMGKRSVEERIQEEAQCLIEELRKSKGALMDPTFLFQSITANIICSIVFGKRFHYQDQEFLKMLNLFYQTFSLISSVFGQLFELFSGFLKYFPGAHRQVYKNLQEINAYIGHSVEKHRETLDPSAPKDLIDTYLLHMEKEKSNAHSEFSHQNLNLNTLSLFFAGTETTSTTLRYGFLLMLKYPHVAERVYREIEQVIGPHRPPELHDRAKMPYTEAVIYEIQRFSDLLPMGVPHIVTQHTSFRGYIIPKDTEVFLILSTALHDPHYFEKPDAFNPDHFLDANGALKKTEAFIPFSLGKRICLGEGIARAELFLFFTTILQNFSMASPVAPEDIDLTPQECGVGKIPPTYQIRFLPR

[11] = Oral bioavailability in Wistar Han rat at 5 mg/kg; type: ADME, organism-based; settings: in vivo
[12] = Drug metabolism in rat hepatocytes assessed as oxidation of THF ring mediated metabolite formation; type: ADME, cell-based, Hepatocyte
[13] = Drug metabolism in cryopreserved human hepatocytes assessed as O-deethylation mediated pyridin-3-ol metabolite formation at 10 uM measured for 240 mins by HPLC-UV-MS analysis; type: ADME, cell-based, Hepatocyte; settings: 4 h
[14] = biological target: Voltage-gated inwardly rectifying potassium channel KCNH2 (Homo sapiens, UniProt Q12809); experiment: Inhibition of hERG by patch-clamp method; type: toxicity
[15] = Volume of distribution at steady state in cynomolgus monkey at 1 mg/kg, iv; type: ADME, organism-based, Macaca fascicularis; settings: in vivo, read-out: Vdss
Cytochrome P450 2C9 = Cytochrome P450 2C9 (Homo sapiens, UniProt P11712); experiment: Reversible inhibition of CYP2C9 in pooled human liver microsomes using 4-Hydroxydiclofenac as substrate incubated for 10 mins in presence of NADPH by HPLC-MS/MS analysis; type: ADME, Microsome
Cytochrome P450 2D6 = Cytochrome P450 2D6 (Homo sapiens, UniProt P10635); experiment: Reversible inhibition of CYP2D6 in pooled human liver microsomes using dextrorphan as substrate incubated for 14 mins in presence of NADPH by HPLC-MS/MS analysis; type: ADME, Microsome
[16] = Toxicity in non-human primates assessed as development-limiting toxicity
[17] = Drug metabolism in monkey hepatocytes assessed as O-deethylation mediated pyridin-3-ol mediated metabolite formation; type: ADME, cell-based, Macaca mulatta, Hepatocyte; settings: rhesus monkey
[18] = Drug metabolism in cryopreserved human hepatocytes assessed as oxidation of THF ring mediated metabolite formation at 10 uM measured for 240 mins by HPLC-UV-MS analysis; type: ADME, cell-based, Hepatocyte; settings: 4 h
[19] = Drug metabolism in monkey hepatocytes assessed as hydrolytic cleavage of amide bond mediated metabolite formation; type: ADME, cell-based, Macaca mulatta, Hepatocyte; settings: rhesus monkey
[20] = Half life in human; type: ADME

Chain of Cytochrome P450 2C19 (P33261 whole entry): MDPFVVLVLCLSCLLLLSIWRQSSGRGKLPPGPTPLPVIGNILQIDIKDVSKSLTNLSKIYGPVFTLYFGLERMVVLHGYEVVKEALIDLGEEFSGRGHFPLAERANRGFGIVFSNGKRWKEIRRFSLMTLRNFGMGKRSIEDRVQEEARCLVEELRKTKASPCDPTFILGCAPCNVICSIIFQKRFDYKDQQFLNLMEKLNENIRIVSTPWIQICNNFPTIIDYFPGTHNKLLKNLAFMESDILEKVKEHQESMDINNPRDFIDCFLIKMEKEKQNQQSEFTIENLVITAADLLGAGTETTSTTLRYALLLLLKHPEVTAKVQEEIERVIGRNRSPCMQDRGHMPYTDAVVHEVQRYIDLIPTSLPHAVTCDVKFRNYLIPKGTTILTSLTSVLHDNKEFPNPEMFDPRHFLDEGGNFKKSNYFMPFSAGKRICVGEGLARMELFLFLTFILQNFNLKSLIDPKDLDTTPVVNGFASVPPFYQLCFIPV
Chain of Voltage-gated inwardly rectifying potassium channel KCNH2 (Q12809 whole entry): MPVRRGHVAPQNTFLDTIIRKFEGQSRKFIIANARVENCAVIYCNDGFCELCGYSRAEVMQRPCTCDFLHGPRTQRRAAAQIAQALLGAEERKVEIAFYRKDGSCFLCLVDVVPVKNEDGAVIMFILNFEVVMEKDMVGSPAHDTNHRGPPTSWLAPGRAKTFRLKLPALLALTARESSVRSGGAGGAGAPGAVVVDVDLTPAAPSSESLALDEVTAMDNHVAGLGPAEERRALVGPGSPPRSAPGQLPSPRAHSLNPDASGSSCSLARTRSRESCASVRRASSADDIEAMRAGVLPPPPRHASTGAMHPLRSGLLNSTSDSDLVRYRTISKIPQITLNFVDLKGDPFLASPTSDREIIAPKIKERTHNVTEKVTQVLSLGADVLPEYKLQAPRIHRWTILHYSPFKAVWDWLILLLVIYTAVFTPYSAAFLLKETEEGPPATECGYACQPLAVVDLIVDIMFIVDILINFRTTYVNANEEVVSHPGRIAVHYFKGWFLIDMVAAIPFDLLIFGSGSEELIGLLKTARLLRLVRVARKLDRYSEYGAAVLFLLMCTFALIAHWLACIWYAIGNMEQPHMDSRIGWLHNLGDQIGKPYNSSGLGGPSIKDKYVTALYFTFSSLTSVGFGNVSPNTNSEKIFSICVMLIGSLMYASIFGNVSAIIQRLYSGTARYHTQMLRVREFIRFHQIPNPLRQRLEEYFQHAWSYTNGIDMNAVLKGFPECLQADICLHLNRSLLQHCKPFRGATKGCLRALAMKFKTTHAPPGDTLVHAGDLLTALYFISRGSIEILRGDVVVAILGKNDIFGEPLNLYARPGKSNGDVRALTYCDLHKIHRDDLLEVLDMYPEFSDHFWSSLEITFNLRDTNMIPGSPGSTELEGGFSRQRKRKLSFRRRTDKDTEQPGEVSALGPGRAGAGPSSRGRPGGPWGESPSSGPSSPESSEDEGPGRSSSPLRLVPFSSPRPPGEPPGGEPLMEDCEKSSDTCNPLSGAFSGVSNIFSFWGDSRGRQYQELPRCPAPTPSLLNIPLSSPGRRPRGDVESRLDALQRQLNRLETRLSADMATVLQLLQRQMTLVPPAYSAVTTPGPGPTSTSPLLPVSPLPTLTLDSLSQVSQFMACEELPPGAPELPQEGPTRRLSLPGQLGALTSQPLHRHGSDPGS
Chain of Cytochrome P450 2C9 (P11712 whole entry): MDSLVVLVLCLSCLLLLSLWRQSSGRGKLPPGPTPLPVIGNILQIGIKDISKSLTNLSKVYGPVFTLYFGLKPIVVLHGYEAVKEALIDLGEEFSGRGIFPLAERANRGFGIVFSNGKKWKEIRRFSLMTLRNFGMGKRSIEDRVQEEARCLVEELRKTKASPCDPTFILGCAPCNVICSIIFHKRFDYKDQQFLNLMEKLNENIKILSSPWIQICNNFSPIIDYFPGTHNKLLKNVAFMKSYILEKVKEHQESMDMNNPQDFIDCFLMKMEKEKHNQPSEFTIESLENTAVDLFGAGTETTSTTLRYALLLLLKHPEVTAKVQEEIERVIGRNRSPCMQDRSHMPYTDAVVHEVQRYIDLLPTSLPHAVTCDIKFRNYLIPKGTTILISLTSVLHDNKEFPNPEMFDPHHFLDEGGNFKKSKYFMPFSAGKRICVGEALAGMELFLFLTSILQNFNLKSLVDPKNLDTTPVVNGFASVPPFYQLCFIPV
Chain of Cytochrome P450 2D6 (P10635 whole entry): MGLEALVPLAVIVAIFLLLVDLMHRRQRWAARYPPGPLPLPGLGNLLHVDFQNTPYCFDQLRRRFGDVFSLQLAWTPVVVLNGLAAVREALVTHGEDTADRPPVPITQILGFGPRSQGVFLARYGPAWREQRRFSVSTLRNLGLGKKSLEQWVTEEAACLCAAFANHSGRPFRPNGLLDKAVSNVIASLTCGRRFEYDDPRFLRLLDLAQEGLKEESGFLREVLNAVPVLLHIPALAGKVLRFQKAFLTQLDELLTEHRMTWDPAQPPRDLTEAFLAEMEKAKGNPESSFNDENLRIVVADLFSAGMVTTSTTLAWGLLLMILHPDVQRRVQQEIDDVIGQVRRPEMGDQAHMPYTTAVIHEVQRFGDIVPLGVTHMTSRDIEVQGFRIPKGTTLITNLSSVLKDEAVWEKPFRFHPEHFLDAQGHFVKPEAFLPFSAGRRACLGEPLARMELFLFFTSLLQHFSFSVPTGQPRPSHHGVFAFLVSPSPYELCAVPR

In the case of CCOc1cccnc1Oc1cncc(-c2ncc(C(=O)N[C@H]3CCOC3)cn2)c1 [PF-06865571], the Activity [1] is reported as “Non-Toxic”, the inhibition (Rattus norvegicus) is reported as “Dde” and the IC50 (Cytochrome P450 2C19) is reported as 57 µM. The Drug metabolism [2] was “Metabolite_Detected”, the Ratio [3] was 0.213 and the IC50 (Cytochrome P450 1A2) was over 100 µM. The Ratio [4] was 0.36, the clearance [5] was 10 mL/min/kg and the Papp [6] was 19 ×10⁻⁶ cm/s. For the same compound, the Drug metabolism [7] was “Metabolite_Detected”, the Vd [8] was 0.9 L/kg and the Drug metabolism [9] was “Metabolite_Detected”. For the same compound, the Activity [10] was “Non-Toxic”, the IC50 (Cytochrome P450 2B6) was over 100 µM and the bioavailability [11] was 31%. The Drug metabolism [12] was “Metabolite_Detected”, the Drug metabolism [13] was “Metabolite_Detected” and the IC50 [14] was over 100 µM. For the same compound, the Vd [15] was 0.7 L/kg, the IC50 (Cytochrome P450 2C9) was 8.7 µM and the IC50 (Cytochrome P450 2D6) was over 100 µM. The Activity [16] was “Non-Toxic”, the Drug metabolism [17] was “Metabolite_Detected” and the Drug metabolism [18] was “Metabolite_Detected”. For the same compound, the Drug metabolism [19] was “Metabolite_Detected” and the half-life [20] was 5 h.

Source: ChEMBL document CHEMBL5096227, “Discovery of Ervogastat (PF-06865571): A Potent and Selective Inhibitor of Diacylglycerol Acyltransferase 2 for the Treatment of Non-alcoholic Steatohepatitis” (J Med Chem, 2022)
